The supplement of paper PMC10307832

Tests used:
Assay in all cases: relative viability (nuclei count vs DMSO), 5 days (fraction); higher = more cells survive
[1] = compound: O=C(/C=C/c1ccccc1)NC(NC(=S)Nc1cccc2cccnc12)C(Cl)(Cl)Cl [Salubrinal] + C[C@]1(O)C[C@@H](c2nc(-c3ccc4ccc(-c5ccccc5)nc4c3)c3c(N)nccn32)C1 [Linsitinib] (partner 1 µM)
In short: (§1)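 Cells from lung cancer lines were seeded into 1536-well plates and, one day later, dosed by pin tool. Treatments were either a single drug or a fixed dose of an anchor drug with five library-drug doses (not always all listed) in √10 steps. After 5 days, nuclei were stained in a one-step fixation (final 0.05% Triton X-100, 1% formaldehyde, 1 ug/ml Hoechst) and counted on 4× images, and relative viability is the treated-to-vehicle nuclei ratio, as the median of duplicate plates.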

[2] = compound: Cc1ccc2nc(NCCN)c3ncc(C)n3c2c1 + CC1(C)CCC(c2ccc(Cl)cc2)=C(CN2CCN(c3ccc(C(=O)NS(=O)(=O)c4ccc(N[C@H](CCN5CCOCC5)CSc5ccccc5)c(S(=O)(=O)C(F)(F)F)c4)cc3)CC2)C1 [Navitoclax] (partner 0.5 µM)
In short: as §1

[3] = compound: Cc1ccc2nc(NCCN)c3ncc(C)n3c2c1 + CC(=O)c1c(C)c2cnc(Nc3ccc(N4CCNCC4)cn3)nc2n(C2CCCC2)c1=O [Palbociclib] (partner 0.5 µM)
In short: as §1

[4] = compound: O=C(/C=C/c1ccccc1)NC(NC(=S)Nc1cccc2cccnc12)C(Cl)(Cl)Cl [Salubrinal] + C[C@@H](Oc1cc(-c2cnn(C3CCNCC3)c2)cnc1N)c1c(Cl)ccc(F)c1Cl [Crizotinib] (partner 1 µM)
In short: as §1

Row | Cell Line | relative viability ([1]; first compound 0.08 µM) | relative viability ([1]; first compound 0.253 µM) | relative viability ([1]; first compound 0.8 µM) | relative viability ([1]; first compound 2.53 µM) | relative viability ([1]; first compound 8 µM) | relative viability ([2]; first compound 0.04 µM) | relative viability ([2]; first compound 0.1265 µM) | relative viability ([2]; first compound 0.4 µM) | relative viability ([2]; first compound 1.265 µM) | relative viability ([2]; first compound 4 µM) | relative viability ([3]; first compound 0.04 µM) | relative viability ([3]; first compound 0.1265 µM) | relative viability ([3]; first compound 0.4 µM) | relative viability ([3]; first compound 1.265 µM) | relative viability ([3]; first compound 4 µM) | relative viability ([4]; first compound 0.08 µM) | relative viability ([4]; first compound 0.253 µM) | relative viability ([4]; first compound 0.8 µM) | relative viability ([4]; first compound 2.53 µM) | relative viability ([4]; first compound 8 µM)
1 | NCI-H1666 | 0.78 | 0.777 | 0.869 | 0.735 | 0.797 | 0.886 | 0.922 | 0.96 | 0.89 | 0.776 | 0.664 | 0.675 | 0.598 | 0.611 | 0.665 | 1.17 | 0.852 | 1.14 | 0.784 | 0.94
2 | NCI-H1734 | 0.931 | 0.858 | 1.02 | 0.976 | 0.826 | 0.818 | 0.803 | 0.8 | 0.808 | 0.803 | 0.319 | 0.367 | 0.369 | 0.319 | 0.254 | 0.694 | 0.774 | 0.842 | 0.674 | 0.772
3 | NCI-H1755 | 1.05 | 0.869 | 1.03 | 1 | 0.947 | 1.04 | 0.971 | 0.997 | 1.02 | 0.98 | 0.454 | 0.482 | 0.486 | 0.455 | 0.385 | 0.991 | 0.738 | 1 | 0.874 | 0.917
4 | NCI-H1792 | 0.805 |  | 0.606 | 0.482 | 0.457 | 0.642 | 0.658 | 0.645 | 0.619 | 0.594 | 0.694 | 0.649 | 0.652 | 0.562 | 0.625 | 1.14 |  | 1.33 | 0.929 | 0.859
5 | NCI-H1915 | 1.02 | 1.06 | 1.16 | 1.1 | 1.13 | 0.793 |  | 0.781 | 0.774 | 0.766 | 0.512 | 0.51 | 0.39 | 0.552 | 0.488 | 0.994 | 0.643 | 1.03 | 0.875 | 0.836
6 | NCI-H1944 | 1.28 | 1.23 | 1.34 | 1.17 | 1.15 | 1.11 | 1.01 | 1.04 | 1.06 | 1.03 | 0.333 | 0.322 | 0.349 | 0.31 | 0.297 | 1.22 | 1.12 | 1.29 | 1.08 | 1.21
7 | NCI-H1975 | 1.1 | 0.735 | 1.17 | 0.988 | 0.946 | 1.06 | 1.12 | 1.08 | 0.952 | 0.863 | 0.626 | 0.583 | 0.647 | 0.611 | 0.517 | 1.07 | 0.722 | 1.06 | 0.992 | 0.816
8 | NCI-H1993 | 0.757 | 0.722 | 0.775 | 0.805 | 0.816 | 0.799 | 0.782 | 0.676 | 0.752 | 0.692 | 0.627 | 0.559 | 0.532 | 0.501 | 0.596 | 0.795 | 0.856 | 0.794 | 0.909 | 0.941
9 | NCI-H2009 | 1.16 | 1.17 | 1.28 | 1.2 | 1.14 | 1.19 | 1.08 | 1.17 | 1.17 | 1.09 | 0.238 | 0.202 | 0.245 | 0.275 | 0.295 | 1.02 | 0.972 | 0.955 | 0.983 | 0.976
10 | NCI-H2023 | 0.707 | 0.573 | 0.676 | 0.777 | 0.706 | 1.05 | 0.999 | 1.03 | 1.03 | 0.954 | 0.369 | 0.366 | 0.366 | 0.433 | 0.238 | 0.674 | 0.672 | 0.68 | 0.635 | 0.614
11 | NCI-H2085 | 1.03 | 0.754 | 0.896 | 0.787 | 0.868 | 1.27 | 1.12 | 1.08 | 1.06 | 1.08 | 0.49 | 0.514 | 0.465 | 0.469 | 0.478 | 0.901 | 0.804 | 0.789 | 0.813 | 0.834
12 | NCI-H2087 | 1.01 | 0.942 | 0.98 | 0.782 | 1.02 | 0.985 | 1.09 | 1.01 | 0.856 | 1.06 | 0.253 | 0.271 | 0.174 | 0.286 | 0.323 | 0.984 | 0.758 | 0.913 | 0.867 | 0.865
13 | NCI-H2126 | 0.716 | 0.707 | 0.748 | 0.693 | 0.689 | 0.881 | 0.886 | 0.815 | 0.746 | 0.792 | 0.392 | 0.392 | 0.319 | 0.403 | 0.372 | 1.14 | 0.961 | 1.12 | 1.01 | 1.03
14 | NCI-H2228 | 0.768 | 0.813 | 0.791 | 0.581 | 0.629 | 0.794 | 0.843 | 0.702 | 0.732 | 0.674 | 0.649 | 0.763 | 0.908 | 0.782 | 0.648 | 0.496 | 0.446 | 0.632 | 0.353 | 0.362
15 | NCI-H2347 | 1.06 | 1 | 1.06 | 1.15 | 0.963 | 0.871 | 0.723 | 0.715 | 0.787 | 0.677 | 0.431 | 0.451 | 0.417 | 0.433 | 0.455 | 0.709 | 0.709 | 0.772 | 0.76 | 0.719
16 | NCI-H2405 | 1.07 | 1 | 0.861 | 0.889 | 0.843 | 0.849 | 0.905 | 0.936 | 0.718 | 0.725 | 0.557 | 0.511 | 0.518 | 0.522 | 0.508 | 0.858 | 0.866 | 0.922 | 0.924 | 0.958
